According to PubChem BioAssay AID256 (DTP/NCI, 2004):
Toxic doses and inconclusive results are not listed. Rule for the calls: active = survival T/C of 150% or more; inactive = T/C below 125% in these data.

Test system: CD2F1 mice, L1210 leukemia ip, survival T/C
Test: NCI In Vivo Anticancer Drug Screen. Data for tumor model L1210 Leukemia (intraperitoneal) in CD2F1 (CDF1) mice
Details: higher = longer survival
Outline: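 Transplantable tumor in mice; compound-treated vs vehicle-treated groups. Read-out = treated/control ratio of the measured endpoint.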

Measured: T/C

O=C(O)C1CSCN1 (centres undefined)
inactive: endpoint: mean survival time, dose: 3.12 mg/kg/injection, schedule: Q01DX009 (ip), vehicle: saline 97 % of control | endpoint: mean survival time, dose: 3.12 mg/kg/injection, schedule: Q01DX009 (ip), vehicle: water 101 % of control | endpoint: mean survival time, dose: 6.25 mg/kg/injection, schedule: Q01DX009 (ip), vehicle: saline 98 % of control | endpoint: mean survival time, dose: 6.25 mg/kg/injection, schedule: Q01DX009 (ip), vehicle: water 93 % of control | endpoint: mean survival time, dose: 12.5 mg/kg/injection, schedule: Q01DX009 (ip), vehicle: saline 96 % of control | endpoint: mean survival time, dose: 12.5 mg/kg/injection, schedule: Q01DX009 (ip), vehicle: water 102 % of control | endpoint: mean survival time, dose: 25.0 mg/kg/injection, schedule: Q01DX009 (ip), vehicle: saline 93 % of control | endpoint: mean survival time, dose: 25.0 mg/kg/injection, schedule: Q01DX009 (ip), vehicle: water 98 % of control | endpoint: mean survival time, dose: 50.0 mg/kg/injection, schedule: Q01DX009 (ip), vehicle: saline 100 % of control | endpoint: mean survival time, dose: 50.0 mg/kg/injection, schedule: Q01DX009 (ip), vehicle: water 95 % of control | endpoint: mean survival time, dose: 100.0 mg/kg/injection, schedule: Q01DX009 (ip), vehicle: saline 95 % of control | endpoint: mean survival time, dose: 100.0 mg/kg/injection, schedule: Q01DX009 (ip), vehicle: water 95 % of control | endpoint: median survival time, dose: 3.12 mg/kg/injection, schedule: Q01DX009 (ip), vehicle: Klucel (hydroxypropylcellulose) (HPC) 93 % of control | endpoint: median survival time, dose: 6.25 mg/kg/injection, schedule: Q01DX009 (ip), vehicle: Klucel (hydroxypropylcellulose) (HPC) 95 % of control | endpoint: median survival time, dose: 12.5 mg/kg/injection, schedule: Q01DX009 (ip), vehicle: Klucel (hydroxypropylcellulose) (HPC) 102 % of control | endpoint: median survival time, dose: 15.0 mg/kg/injection, schedule: Q01DX005 (ip), vehicle: saline 108 % of control | endpoint: median survival time, dose: 25.0 mg/kg/injection, schedule: Q01DX009 (ip), vehicle: Klucel (hydroxypropylcellulose) (HPC) 91 % of control | endpoint: median survival time, dose: 50.0 mg/kg/injection, schedule: Q01DX005 (ip), vehicle: saline 101 % of control | endpoint: median survival time, dose: 50.0 mg/kg/injection, schedule: Q01DX009 (ip), vehicle: Klucel (hydroxypropylcellulose) (HPC) 95 % of control | endpoint: median survival time, dose: 60.0 mg/kg/injection, schedule: Q01DX005 (ip), vehicle: saline 103 % of control | endpoint: median survival time, dose: 100.0 mg/kg/injection, schedule: Q01DX009 (ip), vehicle: Klucel (hydroxypropylcellulose) (HPC) 91 % of control | endpoint: median survival time, dose: 120.0 mg/kg/injection, schedule: Q01DX005 (ip), vehicle: saline 100 % of control

N#C/C(=C\C1CC(Br)CCC1O)C1CCC([N+](=O)[O-])CC1 (centres undefined)
inactive: endpoint: mean survival time, dose: 50.0 mg/kg/injection, schedule: Q01DX009 (ip), vehicle: saline with Tween-80 86 % of control | endpoint: mean survival time, dose: 100.0 mg/kg/injection, schedule: Q01DX009 (ip), vehicle: saline with Tween-80 88 % of control
